Measured values reported in patent US8232584B2 (priority 2005, dated 2012).
Read-outs that look alike come from different tables or passages of the source.

Key:
[1] = tested on: Ab2, monoclonal antibody receptor cross reactive to f-PSA and PSA-ACT; type: binding
[2] = type: binding; conditions: CT 5 ng/ml; PSA 100 ng/ml; BSA 10 microgram/ml; phosphate buffer pH 6.7
[3] = tested on: monoclonal antibodies for PSA (Ab1); type: binding
[4] = type: binding; conditions: BT 5 ng/ml; PSA 100 ng/ml; BSA 10 microgram/ml; phosphate buffer pH 6.7
[5] = f-PSA 1700 pg/ml, p-type silicon nanowire

PSA-ACT: PSA-alpha-1-antichymotrypsin complex, cancer marker
Conductance Change NW2-Ab2 ([1]; PSA-ACT 0.32 pg/ml): 19 nS
Conductance Change NW2-Ab2 ([1]; PSA-ACT 3.2 pg/ml): 67 nS
Conductance Change NW2-Ab2 ([1]; PSA-ACT 320 pg/ml): 124 nS
Conductance Change NW2-Ab2 ([1]; PSA-ACT 3200 pg/ml): 143 nS

f-PSA: free prostate specific antigen, cancer marker protein, purchased from Calbiochem
conductance response to injection [2]: no response was observed
Conductance Change NW1-Ab1 ([3]; f-PSA 0.085 pg/ml): 15 nS
Conductance Change NW1-Ab1 ([3]; f-PSA 0.85 pg/ml): 45 nS
Conductance Change NW1-Ab1 ([3]; f-PSA 8.5 pg/ml): 98 nS
Conductance Change NW1-Ab1 ([3]; f-PSA 850 pg/ml): 185 nS
Conductance Change NW1-Ab1 [3, 5]: 192 nS
Conductance Change NW2-Ab2 ([1]; f-PSA 0.085 pg/ml): 10 nS
Conductance Change NW2-Ab2 ([1]; f-PSA 0.85 pg/ml): 50 nS
Conductance Change NW2-Ab2 ([1]; f-PSA 8.5 pg/ml): 81 nS
Conductance Change NW2-Ab2 ([1]; f-PSA 850 pg/ml): 132 nS
Conductance Change NW2-Ab2 [1, 5]: 154 nS
conductance response to injection [4]: no response was observed
